According to patent publication US20100173872A1, “Method and Composition for Treating Alzheimer's Disease and Dementias of Vascular Origin” (THE BOARD OF TRUSTEES OF THE UNIVERSITY OF ILLINOIS, priority 2002, published 2010):
Bridge positions count the residues as written; N and C are the ends. Square brackets hold non-standard residues; d marks the D form. Ends that are not written are not given here. Peptide text beside a SMILES is read from it.

Experiments:
[1] = system: ET receptor; settings: cited from earlier work; for effect of pretreatment on systemic hemodynamic and regional circulatory effects of ET-1: BQ123 10 μg ICV, centrally administered ET-1; for effect on hemodynamics or regional blood circulation: specific ETB receptor agonists, separate experiments
[2] = Effect of ET-1 infusion on brain blood flow in control and Aβ-treated rats; type: in vivo, rat; settings: 30 minutes infusion; Aβ-treated vs control rats
Method: Studies in 3-month-old rats to determine the effect of Aβ on systemic hemodynamics and regional blood circulation were performed. […] The effect of ET-1 on the brain blood flow of control and Aβ treated rats also was determined (FIG. 4).
Once infusion was stopped, a rebound increase in blood flow was observed. It can be inferred that Aβ increased the endogenous concentration of ET-1, leading to vasoconstriction. Accordingly, the administration of an ET-1 antagonist can cause a rebound increase in blood flow.

[3] = system: sympathetic nerve activity; settings: ET-1 90 ng; cited from earlier work

CC(C)C[C@@H]1NC(=O)[C@@H](C(C)C)NC(=O)[C@@H]2CCCN2C(=O)[C@@H](CC(=O)O)NC(=O)[C@@H](Cc2c[nH]c3ccccc23)NC1=O [BQ123, cyclo(-D-Trp-D-Asp-Pro-D-Val-Leu-)] (cyclo(L[dW][dD]P[dV]))
effect of pretreatment on systemic hemodynamic and regional circulatory effects of ET-1 [1]: blocked

CC(C)NCC(O)COc1cccc2ccccc12 (stereo not drawn) [propranolol]
effect of pretreatment on systemic hemodynamic and regional circulatory effects of ET-1 [1]: blocked

ET-1: endothelin-1, a potent cerebrovascular vasoconstrictor peptide; ETA receptor agonist (CSCSSLMDKECVYFCHLDIIW; disulfide 1-15, 3-11; ends not checked; UniProt P05305 53-73, looked up)
cardiac output and stroke volume ([1]; 45 ng ICV): significant decreases | total peripheral resistance ([1]; 45 ng ICV): remained unchanged | effect of ET-1 infusion on brain blood flow [2]: more marked in Aβ-treated rats | sympathetic nerve activity [3]: significantly decreased

ET-2: ETA receptor agonist (CSCSSWLDKECVYFCHLDIIW; disulfide 1-15, 3-11; ends not checked; UniProt P20800 49-69, looked up)
intensity of effects in comparison to ET-1 and SRT6b ([1]; ET-2 90 ng ICV): less intense

ET-3: specific ETB receptor agonist
effect on hemodynamics or regional blood circulation [1]: did not affect

sarafotoxin 6c
effect on hemodynamics or regional blood circulation [1]: did not affect
